Assay results from the supplement of paper PMC11208160.
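Further: IS621 bridge recombinase in Escherichia coli cells against a fixed T5 target plasmid.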

Test: recombinant UMI read abundance after kanamycin selection (control-corrected) (log10(CPM+1)); higher = more efficient recombination; extreme values may be limits of the assay; sequences stand for … in AGTGCAGAGAAAATCGGCCAGTTTTCTCTGCCTGCAGTCCGCATGCCGTGGGACCCCTTGGGTTCTAACCTGTTGCCTAGATTTATGCAGCGGACTGCCTTTCTCCCAAAGTGATAAACCGG…AGGTTGGTTTCACT; site = the 11-nt donor
Summary of the method: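 Counts of recombinant UMIs were reported as log10(CPM+1). Before that, they were converted to CPM, averaged over replicates and scaled using control-derived factors. They came from PCR across the donor–target junction after Escherichia coli carrying the pair library and target plasmid was plated on IPTG (0.07 mM) plus kanamycin, or unselected, in two replicates each.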
In the case of “CAAGTCCCATGGACCGGTTTTCCCGGTAATCCGTATTTGGG (site CAAGTCACTCC)”, the “recombinant UMI read abundance (log10)” value was 0.0127. With “CAAGTCCCATGGACCGGTTTTCCCGGTAATCCGTATTTGGG (site CAAGTCCCTCC)” the “recombinant UMI read abundance (log10)” value was 0.00917. With “CAAGTCCCATGGACCGGTTTTCCCGGTAATCCGTATTTGGG (site CAAGTCGCTCC)” the “recombinant UMI read abundance (log10)” value was 0.0161. For “CAAGTCCCATGGACCGGTTTTCCCGGTAATCCGTATTTGGG (site CAAGTCTCTCC)”, the “recombinant UMI read abundance (log10)” value was 0.025. In the case of “CAAGTGCCATGGACCGGTTTTCCCGGTAATCCGTATTTGTG (site CAAGAGCCTCA)”, the “recombinant UMI read abundance (log10)” value was 0.354. For “CAAGTGCCATGGACCGGTTTTCCCGGTAATCCGTATTTGTG (site CAAGCGCCTCA)”, the “recombinant UMI read abundance (log10)” value was 0.389. For “CAAGTGCCATGGACCGGTTTTCCCGGTAATCCGTATTTGTG (site CAAGGGCCTCA)”, the “recombinant UMI read abundance (log10)” value was 0.21. With “CAAGTGCCATGGACCGGTTTTCCCGGTAATCCGTATTTGTG (site CAAGTGCCTCA)” the “recombinant UMI read abundance (log10)” value was 0.662. For “CAATCGACATGGACCGGTTTTCCCGGTAATCCGTATTTGGG (site CAATCGACTCC)”, the “recombinant UMI read abundance (log10)” value was 0.0993. In the case of “CAATCGACATGGACCGGTTTTCCCGGTAATCCGTATTTGGG (site CACTCGACTCC)”, the “recombinant UMI read abundance (log10)” value was 0.335. For “CAATCGACATGGACCGGTTTTCCCGGTAATCCGTATTTGGG (site CAGTCGACTCC)”, the “recombinant UMI read abundance (log10)” value was 0. In the case of “CAATCGACATGGACCGGTTTTCCCGGTAATCCGTATTTGGG (site CATTCGACTCC)”, the “recombinant UMI read abundance (log10)” value was 0.0172. With “CAATCGACATGGACCGGTTTTCCCGGTAATCCGTATTTGTT (site CAATCGACTAA)” the “recombinant UMI read abundance (log10)” value was 0.347. With “CAATCGACATGGACCGGTTTTCCCGGTAATCCGTATTTGTT (site CCATCGACTAA)” the “recombinant UMI read abundance (log10)” value was 0.0214. With “CAATCGACATGGACCGGTTTTCCCGGTAATCCGTATTTGTT (site CGATCGACTAA)” the “recombinant UMI read abundance (log10)” value was 0.0271. With “CAATCGACATGGACCGGTTTTCCCGGTAATCCGTATTTGTT (site CTATCGACTAA)” the “recombinant UMI read abundance (log10)” value was 0.0699. In the case of “CAATGCTCATGGACCGGTTTTCCCGGTAATCCGTATTTGAA (site AAATGCTCTTT)”, the “recombinant UMI read abundance (log10)” value was 0.129. In the case of “CAATGCTCATGGACCGGTTTTCCCGGTAATCCGTATTTGAA (site CAAAGCTCTTT)”, the “recombinant UMI read abundance (log10)” value was 0.393. In the case of “CAATGCTCATGGACCGGTTTTCCCGGTAATCCGTATTTGAA (site CAACGCTCTTT)”, the “recombinant UMI read abundance (log10)” value was 1.58. For “CAATGCTCATGGACCGGTTTTCCCGGTAATCCGTATTTGAA (site CAAGGCTCTTT)”, the “recombinant UMI read abundance (log10)” value was 0.0098. For “CAATGCTCATGGACCGGTTTTCCCGGTAATCCGTATTTGAA (site CAATACTCTTT)”, the “recombinant UMI read abundance (log10)” value was 1.94. For “CAATGCTCATGGACCGGTTTTCCCGGTAATCCGTATTTGAA (site CAATCCTCTTT)”, the “recombinant UMI read abundance (log10)” value was 0.0831. For “CAATGCTCATGGACCGGTTTTCCCGGTAATCCGTATTTGAA (site CAATGATCTTT)”, the “recombinant UMI read abundance (log10)” value was 0.389. In the case of “CAATGCTCATGGACCGGTTTTCCCGGTAATCCGTATTTGAA (site CAATGCACTTT)”, the “recombinant UMI read abundance (log10)” value was 0.182. In the case of “CAATGCTCATGGACCGGTTTTCCCGGTAATCCGTATTTGAA (site CAATGCCCTTT)”, the “recombinant UMI read abundance (log10)” value was 1.25. For “CAATGCTCATGGACCGGTTTTCCCGGTAATCCGTATTTGAA (site CAATGCGCTTT)”, the “recombinant UMI read abundance (log10)” value was 0.0142. For “CAATGCTCATGGACCGGTTTTCCCGGTAATCCGTATTTGAA (site CAATGCTCTAT)”, the “recombinant UMI read abundance (log10)” value was 1.03. In the case of “CAATGCTCATGGACCGGTTTTCCCGGTAATCCGTATTTGAA (site CAATGCTCTCT)”, the “recombinant UMI read abundance (log10)” value was 0.924. In the case of “CAATGCTCATGGACCGGTTTTCCCGGTAATCCGTATTTGAA (site CAATGCTCTGT)”, the “recombinant UMI read abundance (log10)” value was 0.818. In the case of “CAATGCTCATGGACCGGTTTTCCCGGTAATCCGTATTTGAA (site CAATGCTCTTA)”, the “recombinant UMI read abundance (log10)” value was 0.908. For “CAATGCTCATGGACCGGTTTTCCCGGTAATCCGTATTTGAA (site CAATGCTCTTC)”, the “recombinant UMI read abundance (log10)” value was 0.687. With “CAATGCTCATGGACCGGTTTTCCCGGTAATCCGTATTTGAA (site CAATGCTCTTG)” the “recombinant UMI read abundance (log10)” value was 0.554. For “CAATGCTCATGGACCGGTTTTCCCGGTAATCCGTATTTGAA (site CAATGCTCTTT)”, the “recombinant UMI read abundance (log10)” value was 2.57. In the case of “CAATGCTCATGGACCGGTTTTCCCGGTAATCCGTATTTGAA (site CAATGGTCTTT)”, the “recombinant UMI read abundance (log10)” value was 0.0124. With “CAATGCTCATGGACCGGTTTTCCCGGTAATCCGTATTTGAA (site CAATGTTCTTT)” the “recombinant UMI read abundance (log10)” value was 0. With “CAATGCTCATGGACCGGTTTTCCCGGTAATCCGTATTTGAA (site CAATTCTCTTT)” the “recombinant UMI read abundance (log10)” value was 0. In the case of “CAATGCTCATGGACCGGTTTTCCCGGTAATCCGTATTTGAA (site CACTGCTCTTT)”, the “recombinant UMI read abundance (log10)” value was 0.0585. For “CAATGCTCATGGACCGGTTTTCCCGGTAATCCGTATTTGAA (site CAGTGCTCTTT)”, the “recombinant UMI read abundance (log10)” value was 0.102. In the case of “CAATGCTCATGGACCGGTTTTCCCGGTAATCCGTATTTGAA (site CATTGCTCTTT)”, the “recombinant UMI read abundance (log10)” value was 0.408. For “CAATGCTCATGGACCGGTTTTCCCGGTAATCCGTATTTGAA (site CCATGCTCTTT)”, the “recombinant UMI read abundance (log10)” value was 0.461. In the case of “CAATGCTCATGGACCGGTTTTCCCGGTAATCCGTATTTGAA (site CGATGCTCTTT)”, the “recombinant UMI read abundance (log10)” value was 0.0125. For “CAATGCTCATGGACCGGTTTTCCCGGTAATCCGTATTTGAA (site CTATGCTCTTT)”, the “recombinant UMI read abundance (log10)” value was 0.217. For “CAATGCTCATGGACCGGTTTTCCCGGTAATCCGTATTTGAA (site GAATGCTCTTT)”, the “recombinant UMI read abundance (log10)” value was 0.00437. In the case of “CAATGCTCATGGACCGGTTTTCCCGGTAATCCGTATTTGAA (site TAATGCTCTTT)”, the “recombinant UMI read abundance (log10)” value was 0.0133. For “CAATGCTCATGGACCGGTTTTCCCGGTAATCCGTATTTGTA (site CAATGCTCTTA)”, the “recombinant UMI read abundance (log10)” value was 3.1. With “CAATGCTCATGGACCGGTTTTCCCGGTAATCCGTATTTGTA (site CAATGCTCTTC)” the “recombinant UMI read abundance (log10)” value was 0.746. In the case of “CAATGCTCATGGACCGGTTTTCCCGGTAATCCGTATTTGTA (site CAATGCTCTTG)”, the “recombinant UMI read abundance (log10)” value was 2.25. In the case of “CAATGCTCATGGACCGGTTTTCCCGGTAATCCGTATTTGTA (site CAATGCTCTTT)”, the “recombinant UMI read abundance (log10)” value was 1.55. With “CAATTCCCATGGACCGGTTTTCCCGGTAATCCGTATTTGAT (site CAATTCCCTAA)” the “recombinant UMI read abundance (log10)” value was 0.00345. In the case of “CAATTCCCATGGACCGGTTTTCCCGGTAATCCGTATTTGAT (site CAATTCCCTAC)”, the “recombinant UMI read abundance (log10)” value was 0. For “CAATTCCCATGGACCGGTTTTCCCGGTAATCCGTATTTGAT (site CAATTCCCTAG)”, the “recombinant UMI read abundance (log10)” value was 0. In the case of “CAATTCCCATGGACCGGTTTTCCCGGTAATCCGTATTTGAT (site CAATTCCCTAT)”, the “recombinant UMI read abundance (log10)” value was 1.7. With “CAATTCCCATGGACCGGTTTTCCCGGTAATCCGTATTTGCG (site CAATTCCCTAG)” the “recombinant UMI read abundance (log10)” value was 1.26. For “CAATTCCCATGGACCGGTTTTCCCGGTAATCCGTATTTGCG (site CAATTCCCTCG)”, the “recombinant UMI read abundance (log10)” value was 2.33. With “CAATTCCCATGGACCGGTTTTCCCGGTAATCCGTATTTGCG (site CAATTCCCTGG)” the “recombinant UMI read abundance (log10)” value was 0. For “CAATTCCCATGGACCGGTTTTCCCGGTAATCCGTATTTGCG (site CAATTCCCTTG)”, the “recombinant UMI read abundance (log10)” value was 1.67. For “CAATTGCCATGGACCGGTTTTCCCGGTAATCCGTATTTGCT (site CAATTACCTAG)”, the “recombinant UMI read abundance (log10)” value was 0. With “CAATTGCCATGGACCGGTTTTCCCGGTAATCCGTATTTGCT (site CAATTCCCTAG)” the “recombinant UMI read abundance (log10)” value was 0. For “CAATTGCCATGGACCGGTTTTCCCGGTAATCCGTATTTGCT (site CAATTGCCTAG)”, the “recombinant UMI read abundance (log10)” value was 1.32. For “CAATTGCCATGGACCGGTTTTCCCGGTAATCCGTATTTGCT (site CAATTTCCTAG)”, the “recombinant UMI read abundance (log10)” value was 0. In the case of “CACAAAACATGGACCGGTTTTCCCGGTAATCCGTATTTGGC (site CACAAAACTGC)”, the “recombinant UMI read abundance (log10)” value was 1.79. In the case of “CACAAACCATGGACCGGTTTTCCCGGTAATCCGTATTTGGT (site AACAAACCTAC)”, the “recombinant UMI read abundance (log10)” value was 0. For “CACAAACCATGGACCGGTTTTCCCGGTAATCCGTATTTGGT (site CACAAACCTAC)”, the “recombinant UMI read abundance (log10)” value was 0. With “CACAAACCATGGACCGGTTTTCCCGGTAATCCGTATTTGGT (site GACAAACCTAC)” the “recombinant UMI read abundance (log10)” value was 0. For “CACAAACCATGGACCGGTTTTCCCGGTAATCCGTATTTGGT (site TACAAACCTAC)”, the “recombinant UMI read abundance (log10)” value was 0. For “CACACATCATGGACCGGTTTTCCCGGTAATCCGTATTTGCC (site CACACATCTGG)”, the “recombinant UMI read abundance (log10)” value was 2.15. With “CACACCTCATGGACCGGTTTTCCCGGTAATCCGTATTTGGC (site CACACCTCTGC)” the “recombinant UMI read abundance (log10)” value was 3.07. In the case of “CACACTGCATGGACCGGTTTTCCCGGTAATCCGTATTTGTA (site CACACTGCTTA)”, the “recombinant UMI read abundance (log10)” value was 1.72. For “CACAGATCATGGACCGGTTTTCCCGGTAATCCGTATTTGAT (site CACAGATCTAT)”, the “recombinant UMI read abundance (log10)” value was 2.37. With “CACATGGCATGGACCGGTTTTCCCGGTAATCCGTATTTGTA (site CACATGGCTTA)” the “recombinant UMI read abundance (log10)” value was 2.31. In the case of “CACCAGTCATGGACCGGTTTTCCCGGTAATCCGTATTTGAC (site CACCAGTCTGT)”, the “recombinant UMI read abundance (log10)” value was 0.85. With “CACCGTACATGGACCGGTTTTCCCGGTAATCCGTATTTGCG (site CACCGTACTCG)” the “recombinant UMI read abundance (log10)” value was 1.35. For “CACCGTCCATGGACCGGTTTTCCCGGTAATCCGTATTTGAT (site AACCGTCCTAT)”, the “recombinant UMI read abundance (log10)” value was 0.117. For “CACCGTCCATGGACCGGTTTTCCCGGTAATCCGTATTTGAT (site CACCGTCCTAT)”, the “recombinant UMI read abundance (log10)” value was 1.03. With “CACCGTCCATGGACCGGTTTTCCCGGTAATCCGTATTTGAT (site GACCGTCCTAT)” the “recombinant UMI read abundance (log10)” value was 0.00326.
